The values below come from patent publication US20150031760A1, “PHARMACEUTICAL COMPOSITION FOR PREVENTING OR TREATING NERVOUS SYSTEM DISORDERS COMPRISING SULFURETIN OR PHARMACEUTICALLY ACCEPTABLE SALT THEREOF” (Research and Business Foundation SUNGKYUNKWAN UNIVERSITY, priority 2010, published 2015).

Experiment [1] relates to mice. The experiment in a line: Scopolamine-induced learning and memory deficits, step-through passive avoidance test. It counts as in vivo. As for the experimental part: (§1) Male ICR mice (4-weeks-old, 18-20 g) were purchased from Koatech Co., Ltd. (Pyongtaek, Korea). Mice were housed 10 per cage, allowed access to water and food ad libitum, and maintained in constant temperature (23±1° C.) and humidity (55±5%) conditions under a 12 hour light/dark cycle (lights on 07:00 to 19:00 h). All experiments were conducted in accord with the NIH Guide for the Care and Use of Laboratory Animals and with the approval of the Institutional Animal Care and Use Committee of Sungkyunkwan University.
Assessment of the training or test trials of the passive avoidance test was carried out in identical illuminated and non-illuminated compartments (12×10×12 cm) containing 2-mm stainless steel rods spaced 0.5 cm apart. A 50 W lamp positioned 1 meter above both chambers illuminated the apparatuses. Briefly, the mice underwent two separate trials, a training trial and a test trial 24 hours later. For the training trial, mice were initially placed in the clear chamber. When they entered the dark chamber, the door closed and a 3-sec electrical foot shock (0.5 mA) was delivered through the stainless steel rods. One hour before each training trial, mice were given sulfretin (0.25, 0.5, or 1 mg/kg, p.o.). After 30 minutes, memory impairment was induced by administering scopolamine (0.5 mg/kg, i.p.). Twenty-four hours after the training trial, mice were placed in the illuminated chamber for the test trial. The time for the mouse to enter the dark compartment after the door opening was defined as latency for both training and test trials. Latencies were recorded for up to 300 s. To avoid a ceiling effect in unimpaired animals, sulfuretin alone was administered 1 hour before the training trial without scopolamine treatment. The intensity of electrical foot shock was set at 0.25 mA for 3 seconds. This lower intensity shock allowed for a behavioral window through which to detect any enhancing effect of sulfuretin.

Another experiment concerns SH-SY5Y cells. The experiment in a line: Inhibition of ROS production (DCFH-DA fluorescence). It counts as cell-based, human. The settings on record: hydrogen peroxide-induced, 2 hours pretreatment. As for the experimental part: (§2) The incubator was maintained at a temperature of 37° C., and a mixed gas of 95% air and 5% CO2 was continuously supplied thereto to provide suitable conditions for cell culture. The cells were cultured in a 6-well plate or a 96-well plate at each of densities of 1×10^6 and 2×10^4 cells/well 24 hours before the experiment. […] Sulfuretin was used in ethanol and used at a final concentration of 0.1% or less.
In order to measure ROS elimination activity, cells were labeled with DCFH-DA fluorescence, and quantitative analysis was performed using a fluorescence meter.
Specifically, the 6-well plate in which the cells have been cultured was pretreated with sulfuretin for 2 hours, and then reacted with hydrogen peroxide for 30 minutes to induce ROS. Then, 10 μl of 10 mM DCFH-DA was added to the plate and allowed to react with the cells for 30 minutes. Herein, DCFH-DA in the incubator was covered with a foil such that it would not be exposed to light. The cells that reacted with the DCFH-DA fluorescent substance were detached using cold PBS and centrifuged at 400 g for 3 minutes. The centrifugation process was repeated twice to wash the fluorescent substance. The washed cells were briefly stirred with 1 ml of PBS, and 100 μl was dispensed into each of a fresh 96-well plate. Then, fluorescence was measured at an excitation wavelength of 488 nm and an emission wavelength of 515 nm using a fluorescence meter (Perkinelmer, USA).
The measured value was substituted into the following equation to calculate ROS production:
ROS production (%)=[(O.D. of control−O.D. of test group)/O.D. of control]×100

The next experiment relates to phospho-JNK. Description: Western blot, phospho-JNK expression. The following applies: SH-SY5Y cells. It counts as cell-based, human. As for the experimental part:
as §2
In order to identify the effect of sulfuretin on the expression of proteins related to dementia, Alzheimer's disease, Parkinson's disease and strokes, a Western blot test was carried out.
After 24 hours, the supernatant of each well was collected and centrifuged at 400 g for 3 minutes, and the cells were washed with cold PBS and lysed with 100 μl of T-PER lysis buffer (Thermo, USA) for 30 minutes. The lysates were centrifuged at 10000 g at 4° C. for 15 minutes, and the supernatants were stored at […] until use as test samples. Proteins were quantitatively analyzed using a BCA assay kit (Thermo, USA) and separated within 8.5-12% SDS gel and then transferred to PVDF membranes. To examine the expression of the proteins, the development of fluorescence was analyzed by enhanced chemiluminescence (ECL). Specifically, the membrane was blocked with 5% skimmed non-fat milk for 1 hour and labeled with the primary antibodies, PARP, caspase-3, phospho-p38, phospho-JNK and β-actin at 4° C. overnight. Then, the membrane was washed three times with Tris-tween buffered saline (TTBS), and then labeled with horseradish peroxidase (HRP)-conjugated anti-rabbit and anti-mouse secondary antibodies at room temperature for 1 hour. Then, the membrane was washed five times with TTBS for 10 minutes. The washed film was developed by ECL using x-ray films, and concentrations were quantitatively analyzed using quantitative analysis program (Fujifilm, Japan).
For orientation: A western blot detects proteins with antibodies after separation by electrophoresis.

Experiment [2] relates to mice. Description: Scopolamine-induced cognitive impairment, spontaneous alternation behavior Y-maze test. It counts as in vivo. The following applies: sulfuretin 1 mg/kg, p.o., one hour before test; scopolamine 0.5 mg/kg, i.p. On the procedure: as §1
The spontaneous alternation behavior was measured by Y-maze which consists of a horizontal maze (30 cm long and 5 cm wide, with walls 12 cm high) with three arms (labeled A, B, and C). The maze floor and walls are constructed of dark grey, polyvinyl plastic. Mice were initially placed within one arm, and the number of alternations (i.e., consecutive entry sequences of ABC, CAB, or BCA but not BAB) and the number of arm entries were manually recorded for each mouse over an 8 minutes period. One hour before each test, the mice were given sulfuretin (0.25, 0.5, or 1 mg/kg, p.o.). After 30 minutes, memory impairment was induced by administering scopolamine (0.5 mg/kg, i.p.). […] The percentage alternation was calculated according to the following equation: Percentage alternation=[(Number of alternations)/(Total arm entries−2)]×100. […]

Consider `O=C1/C(=C/c2ccc(O)c(O)c2)Oc2cc(O)ccc21` [sulfuretin], for which, in the experiment with mice [1] (sulfuretin 1 mg/kg, p.o., one hour before training trial, scopolamine 0.5 mg/kg, i.p. (p<0.05)), the “scopolamine-induced decrease of step-through latency time (test trial)” value is given as “blocked this decrease”. Besides, the “latencies during the training trials” value in the experiment on mice [1] (sulfuretin p.o., training trial) is listed as “did not change”. Moreover, the ROS production with SH-SY5Y cells (sulfuretin 0.1 μg/ml) is at most 147%; in the experiment with SH-SY5Y cells (sulfuretin 0.5 μg/ml), at most 126%; with SH-SY5Y cells (sulfuretin 1 μg/ml), at most 123%; in the experiment with SH-SY5Y cells (sulfuretin 5 μg/ml) it was at most 103%. The figures for the phospho-JNK expression in the experiment on phospho-JNK (hydrogen peroxide + sulfuretin 0.1 μg/ml), in the experiment with phospho-JNK (hydrogen peroxide + sulfuretin 0.5 μg/ml) and in the experiment with phospho-JNK (hydrogen peroxide + sulfuretin 1 μg/ml) were at most 261%, at most 204% and at most 120%, respectively. The “decrease of spontaneous alternation behavior induced by scopolamine” value with mice [2] is “significantly inhibited”.
